According to PubChem BioAssay (NCI):
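Five compound concentrations were applied to cells in 96-well plates for 48 hours; endpoints were derived by simple linear interpolation of the resulting dose-response curve. GI50 is the concentration that inhibits growth by half. TGI: total growth inhibition.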

Columns and labels:
Test in all cases: growth of human tumour cells (NCI), 48 h
[1] = tested on: A549 NSCLC
[2] = tested on: HT29 colon
[3] = tested on: IGROV1 ovarian
[4] = tested on: MOLT-4 leukemia
[5] = tested on: OVCAR-3 ovarian
[6] = tested on: OVCAR-4 ovarian
[7] = tested on: SF-268 CNS
[8] = tested on: SF-295 CNS
[9] = tested on: SK-MEL-28 melanoma
[10] = tested on: SK-MEL-5 melanoma

| SMILES | TGI [1] | TGI [2] | TGI [3] | TGI [4] | TGI [5] | TGI [6] | TGI [7] | TGI [8] | TGI [9] | TGI [10] | GI50 [1] | GI50 [2] | GI50 [3] | GI50 [4] | GI50 [5] | GI50 [6] | GI50 [7] | GI50 [8] | GI50 [9] | GI50 [10] |
| --- | --- | --- | --- | --- | --- | --- | --- | --- | --- | --- | --- | --- | --- | --- | --- | --- | --- | --- | --- | --- |
| CCCCCCCCCCCCO[P+](=O)OCCCCCCCCCCCC | > 100 µM | > 100 µM | > 100 µM | > 100 µM | > 100 µM | > 100 µM | > 100 µM | > 100 µM | > 100 µM | > 100 µM |  |  |  |  |  |  |  |  |  |  |
| NC(=O)Oc1ccccc1 | > 100 µM | > 100 µM |  | > 100 µM | > 100 µM | > 100 µM | > 100 µM | > 100 µM | > 100 µM | > 100 µM |  |  |  |  |  |  |  |  |  |  |
| C=C(C)[C@@H]1CC[C@]2(C(=O)NC(C)=O)CC[C@]3(C)[C@H](CC[C@@H]4[C@@]5(C)CCCNC(C)(C)[C@@H]5CC[C@]43C)[C@@H]12 | 3.33 µM | 3.06 µM | 3.15 µM | 3.86 µM | 3.04 µM | 3.23 µM | 3.25 µM | 3.24 µM | 3.04 µM | 3.15 µM | 1.61 µM | 1.21 µM | 1.69 µM | 1.4 µM | 1.59 µM | 1.51 µM | 1.69 µM | 1.81 µM | 1.66 µM | 1.76 µM |
| CCOC(=O)Cn1c(=O)c(C)cn(COCCO)c1=O | > 100 µM | > 100 µM | > 100 µM | > 100 µM | > 100 µM | > 100 µM | > 100 µM |  | > 100 µM | > 100 µM |  |  |  |  |  |  |  |  |  |  |
| O=C(CCC1CCCCN1)Nc1ccc2c(c1)C(=O)c1ccc(NC(=O)CCN3CCCCC3)cc1C2=O (stereo unspecified) | 33.4 µM | 10.8 µM | 31.2 µM |  | 8.37 µM | 5.38 µM | 25.4 µM | 20.8 µM | 3.77 µM | 3.27 µM |  |  |  |  |  |  |  |  |  |  |
| CCN(CC)CCO[Si](OCCN(CC)CC)(OCCN(CC)CC)OCCN(CC)CC | > 100 µM | > 100 µM | > 100 µM |  | > 100 µM | > 100 µM |  | > 100 µM | > 100 µM | > 100 µM |  |  |  |  |  |  |  |  |  |  |
| CN/N=C(\C(=O)Nc1ccc(C)c(C)c1)C(C(=O)OC)c1nc2ccc([N+](=O)[O-])cc2[nH]c1=O (stereo unspecified) | > 100 µM | > 100 µM | > 100 µM | > 100 µM |  | > 100 µM | > 100 µM | > 100 µM | > 100 µM | > 100 µM |  |  |  |  |  |  |  |  |  |  |
| COC(=O)C1c2cc3c(c(O)c2C(O)CC1(C)O)C(=O)c1c(O)cc2c(c1C3=O)OC1OC2(C)C(O)C(N(C)C)C1O (stereo unspecified) |  |  | > 39.7 µM | > 100 µM | > 100 µM | > 100 µM |  | > 100 µM |  |  |  |  |  |  |  |  |  |  |  |  |
| COc1ccc(-c2n/c(=C\c3c(O)[nH]c4ccccc34)cc3c2=Nc2ccccc2-3)cc1 | 4.31 µM | 2.29 µM | 47.7 µM | 4.27 µM | 2.28 µM | 2.98 µM | 3.58 µM |  | 2.32 µM | 2.64 µM | 1.79 µM | 1.1 µM | 15.3 µM | 2.03 µM | 1.01 µM | 1.47 µM | 1.64 µM |  | 1.07 µM | 1.36 µM |
| S=c1nc[nH]c2c1ncn2C1CCCO1 (stereo unspecified) | > 100 µM | > 100 µM | > 100 µM | > 100 µM | > 100 µM | > 100 µM | > 100 µM | > 100 µM | > 100 µM | > 100 µM |  |  |  |  |  |  |  |  |  |  |
| CCOC(C)OC1CC(n2cc(C)c(=O)[nH]c2=O)OC1CO (stereo unspecified) | > 100 µM | > 100 µM | > 100 µM | > 100 µM | > 100 µM | > 100 µM | > 100 µM | > 100 µM | > 100 µM |  |  |  |  |  |  |  |  |  |  |  |
| CCOC(=O)C1=C(C)N(C2OC(COC(=O)c3ccccc3)C(OC(=O)c3ccccc3)C2OC(=O)c2ccccc2)C(=S)NC1c1ccccc1 (stereo unspecified) | > 100 µM | > 100 µM | > 100 µM | 80.6 µM | 71.9 µM | > 100 µM | > 100 µM | > 100 µM | > 100 µM | 42.8 µM |  |  |  |  |  |  |  |  |  |  |
| COc1ccc(C2=NC(c3ccc(Cl)cc3)C(c3ccc(Cl)cc3)N2C(=O)N2CCNC(=O)C2)c(OC(C)C)c1 (stereo unspecified) | 5.61 µM | > 10 µM | 3.29 µM | > 10 µM | 3.13 µM | 4.47 µM | 3.97 µM | 3.38 µM | 7.62 µM | 3.39 µM | 2.22 µM | 3.27 µM | 1.76 µM | 3.39 µM | 1.71 µM | 2.16 µM | 2.11 µM | 1.81 µM | 3.24 µM | 1.76 µM |
| CN1CN(C(=O)N2CN(C)C(=O)N(C)C2)CN(C)C1=O | > 100 µM | > 100 µM | > 100 µM | > 100 µM | > 100 µM |  | > 100 µM | > 100 µM | > 100 µM |  |  |  |  |  |  |  |  |  |  |  |
| C(=C/c1nc2ccccc2o1)/c1ccc2c(c1)OCO2 | > 81.4 µM | > 81.8 µM | > 83 µM | > 100 µM | 29.1 µM | 44.6 µM | > 100 µM | 23.1 µM | > 100 µM | 56.6 µM |  |  |  |  |  |  |  |  |  |  |
| CC1OC(=O)C(C(C)C)NC(=O)C(C(C)C)OC(=O)C(C(C)C)NC(=O)C(C)OC(=O)C(C(C)C)NC(=O)C(C(C)C)OC(=O)C(C(C)C)NC(=O)C(C)OC(=O)C(C(C)C)NC(=O)C(C(C)C)OC(=O)C(C(C)C)NC1=O (stereo unspecified) | 2.98 µM | 3.4 µM | 5.34 µM | 0.00858 µM | 0.0148 µM |  | 5.09 µM |  | 5.63 µM |  |  | < 0.0001 µM |  | < 0.0001 µM | < 0.0001 µM |  |  | < 0.0001 µM | < 0.0001 µM |  |
| NS(=O)(=O)c1ccc(N=Nc2ccc(O)c(C(=O)O)c2)cc1 | > 100 µM | > 100 µM | > 100 µM | > 100 µM | > 100 µM | > 100 µM | > 100 µM | > 100 µM | > 100 µM | > 100 µM |  |  |  |  |  |  |  |  |  |  |
